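How tested: cells in 96-well plates exposed to compound for 48 hours at five concentrations. GI50 = concentration required for 50% inhibition of growth.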 Calls of active or inactive are those of the source. Cut-off read from the data, not from the text of the source: active = GI50 up to about 1.1 µM and inactive = higher.
Assays:
Assay in all cases: NCI tumour cell line growth inhibition, 48 h
786-0 = system: 786-0
A498 = system: A498
A549 = system: A549
ACHN = system: ACHN
BT-549 = system: BT-549
CAKI-1 = system: CAKI-1
CCRF-CEM = system: CCRF-CEM
COLO 205 = system: COLO 205
DU-145 = system: DU-145
EKVX = system: EKVX
HCC 2998 = system: HCC 2998
HCT-116 = system: HCT-116
HCT-15 = system: HCT-15
HL-60 = system: HL-60
HOP-62 = system: HOP-62
HOP-92 = system: HOP-92
HT-29 = system: HT-29
Hs-578T = system: Hs-578T
IGROV-1 = system: IGROV-1
K562 = system: K562
KM12 = system: KM12
LOX IMVI = system: LOX IMVI
M14 = system: M14
MCF7 = system: MCF7
MDA-MB-231 = system: MDA-MB-231
MDA-MB-435 = system: MDA-MB-435
MDA-N = system: MDA-N
Malme-3M = system: Malme-3M
NCI-H226 = system: NCI-H226
NCI-H23 = system: NCI-H23
NCI-H460 = system: NCI-H460
NCI-H522 = system: NCI-H522
NCI/ADR-RES = system: NCI/ADR-RES
OVCAR-3 = system: OVCAR-3
OVCAR-4 = system: OVCAR-4
OVCAR-5 = system: OVCAR-5
OVCAR-8 = system: OVCAR-8
PC-3 = system: PC-3
RPMI-8226 = system: RPMI-8226
RXF 393 = system: RXF 393
SF-268 = system: SF-268
SF-295 = system: SF-295
SK-MEL-28 = system: SK-MEL-28
SK-MEL-2 = system: SK-MEL-2
SK-MEL-5 = system: SK-MEL-5
SK-OV-3 = system: SK-OV-3
SN12C = system: SN12C
SNB-19 = system: SNB-19
SNB-75 = system: SNB-75
SR = system: SR
SW-620 = system: SW-620
T47D = system: T47D
TK-10 = system: TK-10
U-251 = system: U-251
UACC-257 = system: UACC-257
UACC-62 = system: UACC-62
UO-31 = system: UO-31
MOLT-4 = system: MOLT-4

Structure (SMILES): CN(C)CCC(C(=O)C(C)(C)C)c1ccccn1 (centres undefined)
- GI50 (786-0): > 100 µM (inactive)
- GI50 (A498): > 100 µM (inactive)
- GI50 (A549): > 100 µM (inactive)
- GI50 (ACHN): > 100 µM (inactive)
- GI50 (BT-549): > 100 µM (inactive)
- GI50 (CAKI-1): > 100 µM (inactive)
- GI50 (CCRF-CEM): > 100 µM (inactive)
- GI50 (COLO 205): > 100 µM (inactive)
- GI50 (DU-145): > 100 µM (inactive)
- GI50 (EKVX): > 100 µM (inactive)
- GI50 (HCC 2998): > 100 µM (inactive)
- GI50 (HCT-116): > 100 µM (inactive)
- GI50 (HCT-15): > 100 µM
- GI50 (HL-60): > 100 µM (inactive)
- GI50 (HOP-62): > 100 µM (inactive)
- GI50 (HOP-92): > 100 µM (inactive)
- GI50 (HT-29): > 100 µM (inactive)
- GI50 (Hs-578T): > 100 µM (inactive)
- GI50 (IGROV-1): > 100 µM (inactive)
- GI50 (K562): > 100 µM (inactive)
- GI50 (KM12): > 100 µM (inactive)
- GI50 (LOX IMVI): > 100 µM (inactive)
- GI50 (M14): > 100 µM (inactive)
- GI50 (MCF7): > 100 µM (inactive)
- GI50 (MDA-MB-231): > 100 µM (inactive)
- GI50 (MDA-MB-435): > 100 µM (inactive)
- GI50 (MDA-N): > 100 µM (inactive)
- GI50 (Malme-3M): > 100 µM (inactive)
- GI50 (NCI-H226): > 100 µM (inactive)
- GI50 (NCI-H23): > 100 µM (inactive)
- GI50 (NCI-H460): > 100 µM (inactive)
- GI50 (NCI-H522): > 100 µM (inactive)
- GI50 (NCI/ADR-RES): > 100 µM (inactive)
- GI50 (OVCAR-3): < 0.01 µM (active)
- GI50 (OVCAR-4): > 100 µM (inactive)
- GI50 (OVCAR-5): > 100 µM (inactive)
- GI50 (OVCAR-8): > 100 µM (inactive)
- GI50 (PC-3): > 100 µM (inactive)
- GI50 (RPMI-8226): > 100 µM (inactive)
- GI50 (RXF 393): > 100 µM (inactive)
- GI50 (SF-268): > 100 µM (inactive)
- GI50 (SF-295): > 100 µM (inactive)
- GI50 (SK-MEL-28): > 100 µM (inactive)
- GI50 (SK-MEL-2): > 100 µM (inactive)
- GI50 (SK-MEL-5): > 100 µM (inactive)
- GI50 (SK-OV-3): > 100 µM (inactive)
- GI50 (SN12C): > 100 µM (inactive)
- GI50 (SNB-19): > 100 µM (inactive)
- GI50 (SNB-75): > 100 µM (inactive)
- GI50 (SR): > 100 µM (inactive)
- GI50 (SW-620): > 100 µM (inactive)
- GI50 (T47D): > 100 µM (inactive)
- GI50 (TK-10): > 100 µM (inactive)
- GI50 (U-251): > 100 µM (inactive)
- GI50 (UACC-257): > 100 µM (inactive)
- GI50 (UACC-62): > 100 µM (inactive)
- GI50 (UO-31): > 100 µM (inactive)

Structure (SMILES): CC(C)=CCC[C@@H](C)C1=C(O)C(=O)C(C)=C(Nc2ccccc2F)C1=O
- GI50 (786-0): 21.3 µM (inactive)
- GI50 (A498): 16.6 µM (inactive)
- GI50 (A549): 17.2 µM (inactive)
- GI50 (ACHN): 13.8 µM (inactive)
- GI50 (BT-549): 17.5 µM (inactive)
- GI50 (CAKI-1): 16.1 µM (inactive)
- GI50 (CCRF-CEM): 2.39 µM (inactive)
- GI50 (COLO 205): 23.4 µM (inactive)
- GI50 (DU-145): 23.9 µM (inactive)
- GI50 (EKVX): 49.2 µM (inactive)
- GI50 (HCC 2998): 48.1 µM (inactive)
- GI50 (HCT-116): 13.3 µM (inactive)
- GI50 (HCT-15): 5.2 µM
- GI50 (HL-60): 2.28 µM (inactive)
- GI50 (HOP-62): 11.6 µM (inactive)
- GI50 (HOP-92): 21.1 µM (inactive)
- GI50 (HT-29): 33.3 µM (inactive)
- GI50 (Hs-578T): 9.62 µM (inactive)
- GI50 (IGROV-1): 32.6 µM (inactive)
- GI50 (K562): 9.62 µM (inactive)
- GI50 (KM12): 15.5 µM (inactive)
- GI50 (LOX IMVI): 16.4 µM (inactive)
- GI50 (M14): 16.7 µM (inactive)
- GI50 (MCF7): 24.8 µM (inactive)
- GI50 (MDA-MB-231): 28.4 µM (inactive)
- GI50 (MDA-MB-435): 36.7 µM (inactive)
- GI50 (MDA-N): 23.1 µM (inactive)
- GI50 (MOLT-4): 5.68 µM (inactive)
- GI50 (Malme-3M): 10.2 µM (inactive)
- GI50 (NCI-H226): 17.9 µM (inactive)
- GI50 (NCI-H23): 12.7 µM (inactive)
- GI50 (NCI-H460): 12 µM (inactive)
- GI50 (NCI/ADR-RES): 3.49 µM (inactive)
- GI50 (OVCAR-3): 4.1 µM (inactive)
- GI50 (OVCAR-4): 15 µM (inactive)
- GI50 (OVCAR-5): 60.4 µM (inactive)
- GI50 (OVCAR-8): 7.19 µM (inactive)
- GI50 (PC-3): 12.3 µM (inactive)
- GI50 (RPMI-8226): 8.26 µM (inactive)
- GI50 (RXF 393): 12.7 µM (inactive)
- GI50 (SF-268): 9.77 µM (inactive)
- GI50 (SF-295): 3.82 µM (inactive)
- GI50 (SK-MEL-28): 38.6 µM (inactive)
- GI50 (SK-MEL-2): 18.7 µM (inactive)
- GI50 (SK-MEL-5): 12.5 µM (inactive)
- GI50 (SK-OV-3): 25.7 µM (inactive)
- GI50 (SN12C): 15 µM (inactive)
- GI50 (SNB-19): 15.2 µM (inactive)
- GI50 (SNB-75): 22.1 µM (inactive)
- GI50 (SR): 28.1 µM (inactive)
- GI50 (SW-620): 23.8 µM (inactive)
- GI50 (T47D): 14.6 µM (inactive)
- GI50 (TK-10): 29.9 µM (inactive)
- GI50 (U-251): 9.33 µM (inactive)
- GI50 (UACC-257): 21.9 µM (inactive)
- GI50 (UACC-62): 12.1 µM (inactive)
- GI50 (UO-31): 12.9 µM (inactive)

Reference: ChEMBL document CHEMBL1201862, “PubChem BioAssay data set” (2004)
